Assay results published in patent US11161876B2, “Anti-inflammatory nanofibers” (Northwestern University, priority 2015, dated 2021).
“Also recorded” adds a separate entry of the source. * marks the point of attachment. C16 alkyl = CCCCCCCCCCCCCCCC*

What was measured:
[1] = tested on: Rat Bladder Augmentation Model; test: Granuloma quantification (CD68 immunofluorescence) in augmented bladder tissue; assay type: in vivo
Excerpt: Granulation tissue is composed of several extracellular matrices such as collagen and a variety of immune cell types including lymphocytes, neutrophils, and especially macrophages (refs. 54-56; herein incorporated by reference in their entireties). Extravesical granulomas were found in regenerating bladder muscle and submucosa but not in the epithelial layer (urothelium) that lines the interior of the bladder wall. […] Granulation tissue was identified by a trained Pathologist (M.D.H.) utilizing immunofluorescence imaging with the macrophage marker CD68 (green). […] Images are representative examples of multiple stained tissue samples. See Table 1 for granuloma quantification. Magnification 100× (Scale bar, 200 μm).
(§1) Athymic female rats (weighing ˜200 g and 8-10 weeks old; National Cancer Institute Animal Production Program) underwent bladder augmentation (ref. 15; herein incorporated by reference in its entirety). Athymic rats were chosen for this study to solely examine the innate immune response to inflammation without influence of the adaptive immune response. In order to induce anesthesia, animals were given intraperitoneal injections of 60 mg/kg ketamine and 5 mg/kg xylazine. A second injection consisting of Buprenex (1 mg/kg) was administered subcutaneously to alleviate any pain/discomfort during and following surgical procedures. An approximate 1.5 cm midline vertical skin incision was created to expose the abdominal fascia and muscles. This was immediately followed by the separation of the wall leading to the identification of the bladder. An approximate 70% supratrigonal cystectomy was performed from anterior to posterior creating a clamshell. Immediately prior to bladder augmentation procedures, samples of the pro-inflammatory biological scaffold, small intestinal submucosa (SIS (0.5×0.5 cm); Cook Biotech.) (refs. 12,13,16; herein incorporated by reference in their entireties) were thoroughly dip-coated separately in one of the previously described AIF-PAs following gelation procedures. The sections of SIS were dip-coated for approximately 20 seconds and allowed to adhere to the SIS for an additional 30 seconds. Dip-coating procedures were performed at room temperature in air. The cystectomized bladder defect was then augmented with: 1) SIS (non-AIF-PA coated SIS; n=8 animals over both time-points); 2) AIF-PA1 coated SIS (denoted as SIS/AIF-PA1; n=11 animals over both time-points); 3) AIF-PA2 coated SIS (denoted as SIS/AIF-PA2; n=8 animals over both time-points); 4) AIF-PA3 coated SIS (denoted as SIS/AIF-PA3; n=3); 5) AIF-PA4 coated SIS (denoted as SIS/AIF-PA4; n=3 animals); 6) AIF-PA5 coated SIS (denoted as SIS/AIF-PA5; n=3 animals); and 7) AIFC-PA6 coated SIS (denoted as SIS/AIFC-PA6; n=9 animals over both time-points). The bladder was finally covered with omentum after being closed in a watertight manner utilizing 7-0 polyglactin suture. The abdominal wall was then closed in a single layer with 5-0 ethibond running suture and the skin re-approximated with 9 mm autoclips. Each group was sacrificed at 10 day and 5 week time-points.
Tissue sections comprised of SIS alone, SIS/AIF-PA1, SIS/AIF-PA2, and SIS/AIF-PA6 augmentations were subjected to immunofluorescence staining by initially undergoing antigen retrieval which consisted of 15 min of boiling in citrate buffer (0.01M citrate solution, pH 6.0 with 0.05% Tween-20) followed by cooling at room temperature for approximately 20 minutes. The antibody staining process consisted of a blocking step for 15 min in bovine serum albumin (BSA, 5 mg/ml) followed by a 40 minutes incubation at room temperature with the primary antibody. After washing with DPBS, slides were incubated for 30 min with a secondary antibody and eventually rinsed with DPBS and air dried. Slides were mounted with Vectashield (Vector Laboratories). […]

MPO+ neutrophils = test: Immunofluorescence quantification of MPO+ neutrophils in regenerated bladder tissue; assay type: in vivo, rat
Protocol: as §1
(§2) Tissue sections comprised of SIS alone, SIS/AIF-PA1, SIS/AIF-PA2, and SIS/AIF-PA6 augmentations were subjected to immunofluorescence staining by initially undergoing antigen retrieval which consisted of 15 min of boiling in citrate buffer (0.01M citrate solution, pH 6.0 with 0.05% Tween-20) followed by cooling at room temperature for approximately 20 minutes. The antibody staining process consisted of a blocking step for 15 min in bovine serum albumin (BSA, 5 mg/ml) followed by a 40 minutes incubation at room temperature with the primary antibody. After washing with DPBS, slides were incubated for 30 min with a secondary antibody and eventually rinsed with DPBS and air dried. Slides were mounted with Vectashield (Vector Laboratories). Primary antibodies were directed against epitopes for the inflammatory markers CD68 (macrophage) (refs. 18,19; herein incorporated by reference in their entireties) MPO (neutrophil) (ref. 20; herein incorporated by reference in its entirety) or the inflammation-related proteins IL1β, TNFα, IL-10, IL-13, CD206 (M2 macrophage) (refs. 21-25; herein incorporated by reference in their entireties) and CD86 (M1 macrophage) (ref. 26; herein incorporated by reference in its entirety). Antibodies directed against the ECM in regenerating bladder tissue (including COL4A3 and fibronectin) were also utilized. Alexa Red 555 or FITC conjugated secondary antibodies (Molecular Probes) were utilized for visualization (ref. 15; herein incorporated by reference in its entirety). […]

IL-1β = IL-1β expression in regenerated bladder tissue (immunofluorescence); assay type: in vivo, rat; conditions: for Cytokine expression (shown as percentage of cells staining positive) Pro-inflammatory IL-1β: 5 weeks post-augmentation, means ± SE; for percentage of cells staining positive for IL-1β: 10 days post-augmentation
Protocol: as §1, §2

[2] = tested on: Rat Bladder Augmentation Model; test: Urodynamic testing (UDS) of augmented bladders; assay type: in vivo; conditions: for intravesical pressure during voiding: post-augmentation
Protocol: as §1
The bladders of anesthetized athymic rats were exposed through the abdomen as previously described. A 20 gauge cannula (Becton Dickinson and Co.) was delicately placed into the bladder through the dome in order to obtain intravesical measurements. The cannula was connected to the Pump 11 Elite Syringe Pump (Harvard Apparatus) and to a physiological pressure transducer (SP844, MEMSCAP). The pressure transducer was connected to a bridge amplifier (Model FE221; AD Instruments). Continuous reading of the transvesical pressure was measured and plotted using LabChart 7.3 software (AD Instruments). The fill rate for each study ranged from 150-200 uL per minute. Bladder capacity was measured by a modified protocol (ref. 13; herein incorporated by reference in its entirety). Sterile DPBS was injected into the bladder using a 27 gauge needle in 50 μl increments until fluid leakage was observed from the urethra of the animal. The total volume injected was then noted. This procedure was repeated at least three times per animal. Urine was evacuated from the bladder prior to the start of any bladder capacity measurements utilizing a sterile 27 gauge needle. Urodynamic and bladder capacity measurements were performed immediately prior to augmentation procedures and immediately prior to euthanization.
Bladders underwent urodynamic testing (UDS) pre- and post-augmentation. Bladders were gradually filled with sterile saline until a bladder contraction occurred. Bladder pressures rose during the filling until bladder contractions occurred at intravesical pressures of 30-40 cm H2O (FIG. 5, panels A, C, E, and G). […]

[3] = post-augmentation vs pre-augmentation

Substance	Maximum Granuloma Size ([1]; 5W post-augmentation)	Mean Granuloma Size ([1]; 5W post-augmentation)	Minimum Granuloma Size ([1]; 5W post-augmentation)	Number of Granulomas ([1]; 5W post-augmentation)	Number of Large Granulomas (>0.01 mm^2) ([1]; 5W post-augmentation)	granuloma formation, in words ([1]; 5W samples)	Maximum Granuloma Size ([1]; 10D post-augmentation)	Mean Granuloma Size ([1]; 10D post-augmentation)	Minimum Granuloma Size ([1]; 10D post-augmentation)	Number of Granulomas ([1]; 10D post-augmentation)	Number of Large Granulomas (>0.01 mm^2) ([1]; 10D post-augmentation)	granuloma formation, in words ([1]; 10 day samples)	percentage of cells positive for MPO (MPO+ neutrophils; 5 weeks post-augmentation) [%]	percentage of cells positive for MPO (MPO+ neutrophils; 10 days post-augmentation) [%]	Cytokine expression (shown as percentage of cells staining positive) Pro-inflammatory IL-1β (IL-1β) [percentage]	percentage of cells staining positive for IL-1β (IL-1β) [%]	intravesical pressure during voiding [2]	intravesical / voiding pressures, in words [2, 3]	bladder compliance, in words [2, 3]
C16-VVVAAAEEEHDMNKVLDL (SEQ ID NO:2) ({C16 alkyl}-VVVAAAEEEHDMNKVLDL-NH2) [SIS/AIF-PA2, anti-inflammatory peptide amphiphile, tested dip-coated on small intestinal submucosa (SIS) scaffold]	4.08 ± 0.38 10^-3 mm^2	3.00 ± 0.20 10^-3 mm^2	2.09 ± 0.39 10^-3 mm^2	3.00 ± 1.00	0	diminished	11.99 ± 3.62 10^-3 mm^2	5.95 ± 1.16 10^-3 mm^2	2.65 ± 0.17 10^-3 mm^2	4.00 ± 1.00	0.67 ± 0.33	lesser degree of granuloma formation in size and frequency	7.2±1.1	9.0±0.5	11.5 ± 2.7	21.2±2.4	approximately 35 cm H2O	very modest decrease in bladder intravesical pressure	–
C16-VVVAAAEEEMQMKKVLDS (SEQ ID NO:1) ({C16 alkyl}-VVVAAAEEEMQMKKVLDS-NH2) [SIS/AIF-PA1, anti-inflammatory peptide amphiphile, tested dip-coated on small intestinal submucosa (SIS) scaffold]	1.62 ± 1.15 10^-3 mm^2	1.26 ± 0.68 10^-3 mm^2	0.97 ± 0.65 10^-3 mm^2	1.75 ± 1.03	0	diminished	23.39 ± 7.66 10^-3 mm^2	8.77 ± 1.32 10^-3 mm^2	2.67 ± 0.15 10^-3 mm^2	4.00 ± 1.00	1.33 ± 0.33	lesser degree of granuloma formation in size and frequency	5.2±0.7	6.9±0.7	12.9 ± 2.0	28.2±2.4	approximately 25 cm H2O	decreased intravesical pressures	higher bladder compliance; also recorded: increase in compliance
C16-VVVAAAEEEKLMSQKMVD (SEQ ID NO:6) ({C16 alkyl}-VVVAAAEEEKLMSQKMVD-NH2) [SIS/AIFC-PA6, reference compound]	14.80 ± 2.30 10^-3 mm^2	6.10 ± 0.51 10^-3 mm^2	2.21 ± 0.30 10^-3 mm^2	7.00 ± 1.08	1.00 ± 0.41	accumulation of granulomas	110.89 ± 1.51 10^-3 mm^2	29.64 ± 0.74 10^-3 mm^2	6.12 ± 0.01 10^-3 mm^2	10.00 ± 1.00	6.00 ± 1.00	large granuloma formation	17.6±1.8	–	42.9 ± 1.8	63.3±2.4	–	unchanged or even slightly elevated; also recorded: failed to decrease intravesical pressures	–
